From PMC7070078, “Accelerated identification of serine racemase inhibitor from Centella asiatica” (Scientific Reports, 2020)
Several values for one entry are separate records, joined by “and”; a condition that tells them apart may be missing. Equal entries are not always repeated.

How the values were obtained:
serine racemase [1] = molecular target: T1, serine racemase (Homo sapiens, UniProt Q9GZT4); assay: SR activity assay, reference inhibitor (Supplementary Fig. S6); format: biochemical; set-up: gene SRR; recombinant His-tagged human SR (1020 bp gene, NM_021947.1), expressed in E. coli
T1 sequence (Q9GZT4 1-340): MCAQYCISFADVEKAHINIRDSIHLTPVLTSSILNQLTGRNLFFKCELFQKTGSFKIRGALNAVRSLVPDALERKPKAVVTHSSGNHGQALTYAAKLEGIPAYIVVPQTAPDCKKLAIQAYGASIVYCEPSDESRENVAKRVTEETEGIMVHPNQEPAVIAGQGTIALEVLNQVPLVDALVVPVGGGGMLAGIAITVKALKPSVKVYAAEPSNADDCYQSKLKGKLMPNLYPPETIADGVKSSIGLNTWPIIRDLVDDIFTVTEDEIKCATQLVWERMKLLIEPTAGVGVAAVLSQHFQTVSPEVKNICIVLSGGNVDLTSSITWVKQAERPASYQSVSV

serine racemase [2] = molecular target: T1, serine racemase; assay: affinity pull-down from Centella asiatica extract on immobilized SR, identified by LC-MS/MS and FTIR; format: binding; set-up: gene SRR; recombinant His-tagged human SR immobilized on Ni-NTA beads
[3] = molecular target: the molecule itself; assay: SEC; Ni-NTA purified SR on Sephadex S-200, 1 ml/min, 20 mM Tris-HCl, 150 mM NaCl, 15 uM PLP pH 8.0

O=C(O)CC(=O)O [malonate]
IC50 (serine racemase [1]): 449 µM

C[C@H]1[C@H](C)CC[C@]2(C(=O)O)CC[C@]3(C)C(=CC[C@@H]4[C@@]5(C)C[C@@H](O)[C@H](O)[C@@](C)(CO)[C@@H]5[C@H](O)C[C@]43C)[C@H]12 [madecassic acid]
affinity pull-down from Centella asiatica extract on immobilized SR, identified (serine racemase [2]): Madecassoside and madecassic acid are the two compounds identified from the CA plant extract binding to SR.

B1: recombinant human serine racemase (enzyme, UniProt Q9GZT4 1-340, looked up)
chain: MCAQYCISFADVEKAHINIRDSIHLTPVLTSSILNQLTGRNLFFKCELFQKTGSFKIRGALNAVRSLVPDALERKPKAVVTHSSGNHGQALTYAAKLEGIPAYIVVPQTAPDCKKLAIQAYGASIVYCEPSDESRENVAKRVTEETEGIMVHPNQEPAVIAGQGTIALEVLNQVPLVDALVVPVGGGGMLAGIAITVKALKPSVKVYAAEPSNADDCYQSKLKGKLMPNLYPPETIADGVKSSIGLNTWPIIRDLVDDIFTVTEDEIKCATQLVWERMKLLIEPTAGVGVAAVLSQHFQTVSPEVKNICIVLSGGNVDLTSSITWVKQAERPASYQSVSV
notes: serine racemase, human; printed size 37 kDa; no cleavage is described and the purified protein was later held on Ni-NTA beads; PLP was present in the purification buffers; also called SR; recombinant SR
stoichiometry N [3]: 2 and 4
